According to patent publication US20180327355A1, “ISOINDOLINE DERIVATIVES” (priority 2015, published 2018):
Where two headings read alike, the source gives them in different places.

Test system: HIV
Test: MT4 assay (anti-HIV activity)
Format: cell-based
Description: Antiviral HIV activity and cytotoxicity values for compounds of the invention from Table 1 were measured in parallel in the HTLV-1 transformed cell line MT-4 based on the method previously described (Hazen et al., 2007, In vitro antiviral activity of the novel, tyrosyl-based human immunodeficiency virus (HIV) type 1 protease inhibitor brecanavir (GW640385) in combination with other antiretrovirals and against a panel of protease inhibitor-resistant HIV (Hazen et al., “In vitro antiviral activity of the novel, tyrosyl-based human immunodeficiency virus (HIV) type 1 protease inhibitor brecanavir (GW640385) in combination with other antiretrovirals and against a panel of protease inhibitor-resistant HIV”, Antimicrob. Agents Chemother. 2007, 51: 3147-3154; and Pauwels et al., “Sensitive and rapid assay on MT-4 cells for the detection of antiviral compounds against the AIDS virus”, J. of Virological Methods 1987, 16: 171-185).
Luciferase activity was measured 96 hours later by adding a cell titer glo (Promega, Madison, Wis.). Percent inhibition of cell protection data was plotted relative to no compound control. Under the same condition, cytotoxicity of the compounds was determined using cell titer Glo™ (Promega, Madison, Wis). ICsos were determined from a 10 point dose response curve using 3-4-fold serial dilution for each compound, which spans a concentration range >1000 fold.
These values are plotted against the molar compound concentrations using the standard four parameter logistic equation:
y=((Vmax*x̂n)/(K̂n+x̂n))+Y2
Y2=minimum y n=slope factor
Vmax=maximum y x=compound concentration [M]

[1] = MT4 assay, HTLV-1 transformed cell line MT-4, readout 96 hours, cell titer glo, read-out: IC50

| Structure (SMILES) | IC50 [1] [µM] | IC50 (96 h) [µM] |
| --- | --- | --- |
| Cc1c(C#Cc2ccccc2)c([C@H](OC(C)(C)C)C(=O)O)c(C)c2c1CN(C(=O)c1cccc(F)c1)C2 [Example 1, (S)-2-(tert-butoxy)-2-(2-(3-fluorobenzoyl)-4,7-dimethyl-6-(phenylethynyl)isoindolin-5-yl)acetic acid] | 1.03 |  |
| C#Cc1c(C)c2c(c(C)c1[C@H](OC(C)(C)C)C(=O)O)CN(C(=O)c1cccc(F)c1)C2 [Example 2, (S)-2-(tert-butoxy)-2-(6-ethynyl-2-(3-fluorobenzoyl)-4,7-dimethylisoindolin-5-yl)acetic acid] | 3.68 |  |
| Cc1c2c(c(C)c([C@H](OC(C)(C)C)C(=O)O)c1Cc1ccccc1)CN(C(=O)c1cccc(F)c1)C2 [Example 3, (S)-2-(6-benzyl-2-(3-fluorobenzoyl)-4,7-dimethylisoindolin-5-yl)-2-(tert-butoxy)acetic acid] | 0.651 |  |
| Cc1c2c(c(C)c([C@H](OC(C)(C)C)C(=O)O)c1CC(=O)N1CCCCC1)CN(C(=O)c1cccc(F)c1)C2 [Example 4, (S)-2-(tert-butoxy)-2-(2-(3-fluorobenzoyl)-4,7-dimethyl-6-(2-oxo-2-(piperidin-1-yl)ethyl)isoindolin-5-yl)acetic acid] | 10.2 |  |
| Cc1c2c(c(C)c([C@H](OC(C)(C)C)C(=O)O)c1CC(=O)NC1CCCCC1)CN(C(=O)c1cccc(F)c1)C2 [Example 5, (S)-2-(tert-butoxy)-2-(6-(2-(cyclohexylamino)-2-oxoethyl)-2-(3-fluorobenzoyl)-4,7-dimethylisoindolin-5-yl)acetic acid] | 50 |  |
| Cc1c2c(c(C)c([C@H](OC(C)(C)C)C(=O)O)c1CC(=O)Nc1ccccc1)CN(C(=O)c1cccc(F)c1)C2 [Example 6, (S)-2-(tert-butoxy)-2-(2-(3-fluorobenzoyl)-4,7-dimethyl-6-(2-oxo-2-(phenylamino)ethyl)isoindolin-5-yl)acetic acid] | 9.63 |  |
| Cc1c2c(c(C)c([C@H](OC(C)(C)C)C(=O)O)c1CC(=O)NCC(C)(C)C)CN(C(=O)c1cccc(F)c1)C2 [Example 7, (S)-2-(tert-butoxy)-2-(2-(3-fluorobenzoyl)-4,7-dimethyl-6-(2-(neopentylamino)-2-oxoethyl)isoindolin-5-yl)acetic acid] | 38 |  |
| Cc1ccc(C(=O)Nc2c(C)c3c(c(C)c2[C@H](OC(C)(C)C)C(=O)O)CN(C(=O)c2cccc(F)c2)C3)cc1 [Example 8, (S)-2-(tert-butoxy)-2-(2-(3-fluorobenzoyl)-4,7-dimethyl-6-(4-methylbenzamido)isoindolin-5-yl)acetic acid] | 50 |  |
| Cc1c2c(c(C)c([C@H](OC(C)(C)C)C(=O)O)c1NC(=O)CC1CCCCC1)CN(C(=O)c1cccc(F)c1)C2 [Example 9, (S)-2-(tert-butoxy)-2-(6-(2-cyclohexylacetamido)-2-(3-fluorobenzoyl)-4,7-dimethylisoindolin-5-yl)acetic acid] | 50 |  |
| Cc1c2c(c(C)c([C@H](OC(C)(C)C)C(=O)O)c1NC(=O)c1ccccc1)CN(C(=O)c1cccc(F)c1)C2 [Example 10, (S)-2-(6-benzamido-2-(3-fluorobenzoyl)-4,7-dimethylisoindolin-5-yl)-2-(tert-butoxy)acetic acid] | 4.1 |  |
| Cc1c2c(c(C)c([C@H](OC(C)(C)C)C(=O)O)c1NC(=O)N1CCCCC1)CN(C(=O)c1cccc(F)c1)C2 [Example 11, (S)-2-(tert-butoxy)-2-(2-(3-fluorobenzoyl)-4,7-dimethyl-6-(piperidine-1-carboxamido)isoindolin-5-yl)acetic acid] | 3.12 |  |
| Cc1ccc(C(=O)N(C)c2c(C)c3c(c(C)c2[C@H](OC(C)(C)C)C(=O)O)CN(C(=O)c2cccc(F)c2)C3)cc1 [Example 12, (S)-2-(tert-butoxy)-2-(6-(N,4-dimethylbenzamido)-2-(3-fluorobenzoyl)-4,7-dimethylisoindolin-5-yl)acetic acid] | 33.9 |  |
| Cc1c2c(c(C)c(N(C)C(=O)CC3CCCCC3)c1[C@H](OC(C)(C)C)C(=O)O)CN(C(=O)c1cccc(F)c1)C2 [Example 13, (S)-2-(tert-butoxy)-2-(6-(2-cyclohexyl-N-methylacetamido)-2-(3-fluorobenzoyl)-4,7-dimethylisoindolin-5-yl)acetic acid] | 44.6 |  |
| Cc1c(/C=C/C2CCCCC2)c([C@H](OC(C)(C)C)C(=O)O)c(C)c2c1CN(C(=O)c1cccc(F)c1)C2 [Example 14, (S,E)-2-(tert-butoxy)-2-(6-(2-cyclohexylvinyl)-2-(3-fluorobenzoyl)-4,7-dimethylisoindolin-5-yl)acetic acid] | 0.086 |  |
| Cc1c(/C=C/C2CCOCC2)c([C@H](OC(C)(C)C)C(=O)O)c(C)c2c1CN(C(=O)c1cccc(F)c1)C2 [Example 15, (S,E)-2-(tert-butoxy)-2-(2-(3-fluorobenzoyl)-4,7-dimethyl-6-(2-(tetrahydro-2H-pran-4-yl)vinyl)isoindolin-5-yl)acetic acid] | 1.31 |  |
| Cc1c(/C=C/CC(C)(C)C)c([C@H](OC(C)(C)C)C(=O)O)c(C)c2c1CN(C(=O)c1cccc(F)c1)C2 [Example 16, (S,E)-2-(tert-butoxy)-2-(6-(4,4-dimethylpent-1-en-1-yl)-2-(3-fluorobenzoyl)-4,7-dimethylisoindolin-5-yl)acetic acid] | 0.12 |  |
| Cc1c(/C=C/c2ccccc2)c([C@H](OC(C)(C)C)C(=O)O)c(C)c2c1CN(C(=O)c1cccc(F)c1)C2 [Example 17, (S,E)-2-(tert-butoxy)-2-(2-(3-fluorobenzoyl)-4,7-dimethyl-6-styrylisoindolin-5-yl)acetic acid] | 0.124 |  |
| Cc1c2c(c(C)c([C@H](OC(C)(C)C)C(=O)O)c1CCc1ccccc1)CN(C(=O)c1cccc(F)c1)C2 [Example 18, (S)-2-(tert-butoxy)-2-(2-(3-fluorobenzoyl)-4,7-dimethyl-6-phenethylisoindolin-5-yl)acetic acid] | 1.09 |  |
| Cc1ccc(/C=C/c2c(C)c3c(c(C)c2[C@H](OC(C)(C)C)C(=O)O)CN(C(=O)c2cccc(F)c2)C3)cc1 [Example 19, (S,E)-2-(tert-butoxy)-2-(2-(3-fluorobenzoyl)-4,7-dimethyl-6-(4-methylstyryl)isoindolin-5-yl)acetic acid] | 50 |  |
| Cc1ccc(CCc2c(C)c3c(c(C)c2[C@H](OC(C)(C)C)C(=O)O)CN(C(=O)c2cccc(F)c2)C3)cc1 [Example 20, (S)-2-(tert-butoxy)-2-(2-(3-fluorobenzoyl)-4,7-dimethyl-6-(4-methylphenethyl)isoindolin-5-yl)acetic acid] | 50 |  |
| C/C(=C\c1c(C)c2c(c(C)c1[C@H](OC(C)(C)C)C(=O)O)CN(C(=O)c1cccc(F)c1)C2)c1ccccc1 [Example 21, (S,E)-2-(tert-butoxy)-2-(2-(3-fluorobenzoyl)-4,7-dimethyl-6-(2-phenylprop-1-en-1-yl)isoindolin-5-yl)acetic acid] | 0.103 |  |
| C/C(=C\c1ccccc1)c1c(C)c2c(c(C)c1[C@H](OC(C)(C)C)C(=O)O)CN(C(=O)c1cccc(F)c1)C2 [Example 22, (S,E)-2-(tert-butoxy)-2-(2-(3-fluorobenzoyl)-4,7-dimethyl-6-(1-phenylprop-1-en-2-yl)isoindolin-5-yl)acetic acid] | 0.039 |  |
| C/C(=C(/C)c1c(C)c2c(c(C)c1[C@H](OC(C)(C)C)C(=O)O)CN(C(=O)c1cccc(F)c1)C2)c1ccccc1 [Example 23, (S,E)-2-(tert-butoxy)-2-(2-(3-fluorobenzoyl)-4,7-dimethyl-6-(3-phenylbut-2-en-2-yl)isoindolin-5-yl)acetic acid] |  | 0.044 |
| C/C(=C\c1cc(F)c2c(c1C)CCCO2)c1c(C)c2c(c(C)c1[C@H](OC(C)(C)C)C(=O)O)CN(C(=O)c1cccc(F)c1)C2 [Example 24, (S,E)-2-(tert-butoxy)-2-(6-(1-(8-fluoro-5-methylchroman-6-yl)prop-1-en-2-yl)-2-(3-fluorobenzoyl)-4,7-dimethylisoindolin-5-yl)acetic acid] | 50 |  |
| Cc1c(/C=C/c2ccc3c(c2)CCCO3)c([C@H](OC(C)(C)C)C(=O)O)c(C)c2c1CN(C(=O)c1cccc(F)c1)C2 [Example 25, (S,E)-2-(tert-butoxy)-2-(6-(2-(chroman-6-yl)vinyl)-2-(3-fluorobenzoyl)-4,7-dimethylisoindolin-5-yl)acetic acid] | 33.9 |  |
| Cc1c(/C=C/c2cc(F)c3c(c2C)CCCO3)c([C@H](OC(C)(C)C)C(=O)O)c(C)c2c1CN(C(=O)c1cccc(F)c1)C2 [Example 26] | 50 |  |
| Cc1c(/C=C\c2ccccc2)c([C@H](OC(C)(C)C)C(=O)O)c(C)c2c1CN(C(=O)c1cccc(F)c1)C2 [Example 27, (S,Z)-2-(tert-butoxy)-2-(2-(3-fluorobenzoyl)-4,7-dimethyl-6-styrylisoindolin-5-yl)acetic acid] | 0.868 |  |
